One compound from patent US12492373B2, “Production method for nerve tissue” (Racthera Co., Ltd., priority 2014, dated 2025) can be followed below.

The structures appear in SMILES notation.

In the assay the test system is human iPS cells (1231A3 strain). The assay can be described thus: Form of cell aggregate in suspension culturing, bright field observation (good / medium / bad form). Format: cell-based. The note with it: for cell aggregates with a bad form (not spherical, collapsed) / cell aggregates with a good form (spherical, smooth surface and dense inside) / cell aggregates with a medium form (spherical, forming cyst): day 6. The method, then:
(§1) The above human iPS cells were treated with the cell dispersion solution by using TrypLE Select (Life Technologies), further dispersed into single cells by pipetting operation, and the above human iPS cells dispersed into single cells were suspended in 100 μl of a serum-free medium at 1.2×10^4 cells per well of a non-cell-adhesive 96-well culture plate (PrimeSurface 96V-bottom plate, manufactured by SUMITOMO BAKELITE), and subjected to suspension culturing at 37° C., 5% CO2. As the serum-free medium (gfCDM+KSR) therefor, a serum-free medium which is a 1:1 mixture of F-12 medium and IMDM medium supplemented with 10% KSR, 450 μM 1-monothioglycerol, and 1× Chemically defined lipid concentrate was used. At the time of the start of suspension culturing (day 0 after the start of suspension culturing, start of step 2), Y27632 (final concentration 20 μM) was added to the above serum-free medium. By day 2 after the start of suspension culturing, a cell aggregate was formed under both preconditioning conditions and conditions without preconditioning (step 2 completed, step 3 start). On day 3 after the start of suspension culturing, a serum-free medium (50 μl) free of Y27632 was added.
The thus-prepared cells on day 6 after the start of suspension culturing were subjected to bright field observation under an inverted microscope (KEYENCE) (FIG. 3).
Furthermore, bright field observation of the form of the cell aggregate on day 6 after the start of suspension culturing was performed under an inverted microscope, and the form was categorized into good form (FIG. 3C black bar, spherical, smooth surface and dense inside), medium form (FIG. 3 gray bar, spherical, forming cyst), and bad form (FIG. 3C white bar, not spherical, collapsed) and quantified.
as §1, with “μM 1-monothioglycerol, 1× Chemically” for “μM 1-monothioglycerol, and 1× Chemically”, “20 μM) and TGFβR inhibitor (SB431542, 5 μM) were added to” for “20 μM) was added to”, “of Y27632 and supplemented with a TGFβR inhibitor (SB431542, 5 μM) was added.” for “of Y27632 was added.”
The form of the thus-prepared cell aggregates on day 6 after the start of suspension culturing was observed according to the method described in Example 3.
The above human iPS cells were treated with the cell dispersion solution by using TrypLE Select (Life Technologies), further dispersed into single cells by pipetting operation, and the above human iPS cells dispersed into single cells were suspended in 100 μl of a serum-free medium at 1.2×10^4 cells per well of a non-cell-adhesive 96-well culture plate (PrimeSurface 96V-bottom plate, manufactured by SUMITOMO BAKELITE), and subjected to suspension culturing at 37° C., 5% CO2. As the serum-free medium (gfCDM+KSR) therefor, a serum-free medium which is a 1:1 mixture of F-12 medium and IMDM medium supplemented with 10% KSR, 450 μM 1-monothioglycerol and 1× Chemically defined lipid concentrate was used. […]

[1] abbreviates: SB431542 5 μM in step 1 and in step 2 and step 3.
Where [2] appears, read: no preconditioning in step 1, SB431542 5 μM added in step 2 and step 3.

With `NC(=O)c1ccc(-c2nc(-c3ccc4c(c3)OCO4)c(-c3ccccn3)[nH]2)cc1` [SB431542, 4-(5-benzol[1,3]dioxol-5-yl-4-pyridin-2-yl-1H-imidazol-2-yl)-benzamide], the “shape of cell aggregate compared with no preconditioning” value (SB431542 5 μM 1 day in step 1, day 6 of suspension culturing) is given as “better shape”. Under setting [1], the “cell aggregates with a bad form (not spherical, collapsed)” value was “about 0%”; the “cell aggregates with a good form (spherical, smooth surface and dense inside)” value (from here on “cell aggregates with a good form”) is “about 100%”; the “cell aggregates with a medium form (spherical, forming cyst)” value (shortened to “cell aggregates with a medium form”) was “about 0%”. Further, for the setting “SB431542 5 μM in step 1 only”, the “cell aggregates with a bad form (not spherical, collapsed)” value is on record as “about 0%”; the “cell aggregates with a good form” value is given as “about 100%”; the “cell aggregates with a medium form” value is “about 0%”. Moreover, under setting [2], the “cell aggregates with a bad form (not spherical, collapsed)” value is listed as “about 30%”; the “cell aggregates with a good form” value is recorded as “about 10%”; the “cell aggregates with a medium form” value is “about 60%”.
